Activity calls are given as the source filed them.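 The calls were made as follows: active = compounds that block the bursicon-driven reporter signal with IC50 below 35000 nM; inactive = the rest.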
Molecular target: Bursicon receptor (LGR2/rickets), Drosophila melanogaster
Assay: inhibition of bursicon-stimulated LGR2 cAMP signaling – cell-based, HEK293, CRE-luciferase, beta-gal normalized, dry powder, set 3, dose response (AID 743506)
Conditions: 4 h

SMILES	IC50
C[C@H](CO)N1C[C@H](C)[C@H](CN(C)C(=O)Nc2ccc(F)cc2)OCCCC[C@H](C)Oc2ccc(NC(=O)C3CCCCC3)cc2C1=O	< 35 µM
C[C@H](CO)N1C[C@H](C)[C@H](CN(C)C(=O)Nc2ccccc2)OCCCC[C@H](C)Oc2ccc(NC(=O)C3CCCCC3)cc2C1=O	< 35 µM
C[C@H](CO)N1C[C@H](C)[C@H](CN(C)C(=O)Nc2ccc3c(c2)OCO3)OCCCC[C@H](C)Oc2ccc(NC(=O)C3CCCCC3)cc2C1=O	< 35 µM

The remaining lines, values ahead:

IC50	SMILES
< 35 µM	COc1ccc(NC(=O)N(C)C[C@@H]2OCCCC[C@H](C)Oc3ccc(NC(=O)C4CCCCC4)cc3C(=O)N([C@H](C)CO)C[C@@H]2C)cc1
> 35 µM (inactive)	C[C@@H]1CCCCO[C@H](CN(C)C(=O)Nc2ccc(F)cc2)[C@H](C)CN([C@@H](C)CO)C(=O)c2cc(NC(=O)C3CCCCC3)ccc2O1

— PubChem BioAssay AID743506 (Broad Institute, 2014)
